For 1 compound, EC50 results are on record in publication PMC8692984 (Frontiers in Pharmacology, 2021).

Test [1] addresses T1, α7 nAChRs (Homo sapiens, UniProt P36544). As to the kind of experiment: cell-based. To be noted: Choline EC50 ± SEM at PNU120596-α7 nAChRs.
Test [2] deals with T1, α7 nAChRs. Description: cell-based. To be noted: Choline EC50 ± SEM at TQS-α7 nAChRs.

T1 sequence (P36544 23-502): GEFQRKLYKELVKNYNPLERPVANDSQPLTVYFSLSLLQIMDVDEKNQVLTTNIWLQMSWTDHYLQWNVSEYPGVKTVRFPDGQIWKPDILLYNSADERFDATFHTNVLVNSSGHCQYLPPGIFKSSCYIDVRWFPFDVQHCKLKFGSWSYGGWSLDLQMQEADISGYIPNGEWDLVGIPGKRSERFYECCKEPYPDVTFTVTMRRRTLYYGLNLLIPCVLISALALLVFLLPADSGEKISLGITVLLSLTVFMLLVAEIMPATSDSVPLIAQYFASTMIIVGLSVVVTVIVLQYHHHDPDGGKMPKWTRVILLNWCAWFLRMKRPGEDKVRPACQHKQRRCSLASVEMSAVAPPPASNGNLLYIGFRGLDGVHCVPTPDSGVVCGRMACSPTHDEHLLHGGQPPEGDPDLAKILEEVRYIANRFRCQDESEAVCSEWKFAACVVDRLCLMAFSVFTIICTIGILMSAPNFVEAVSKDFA

With `C[N+](C)(C)CCO` [Choline, reference compound], the figures for the EC50 in test [1] and in test [2] were 3 ± 0.26 µM and 9 ± 0.9 µM, respectively.

For orientation: EC50 means the concentration that produces a half-maximal response. The low end stands for higher potency in that assay, the high end for lower potency in that assay.
